Key:
human JAK2 = human JAK2 (Homo sapiens (Human), UniProt O60674); conditions: read-out: JAK2 IC50
human FAK = human FAK (Homo sapiens (Human), UniProt Q05397); conditions: read-out: FAK IC50
Sequence of human FAK (Q05397 whole entry): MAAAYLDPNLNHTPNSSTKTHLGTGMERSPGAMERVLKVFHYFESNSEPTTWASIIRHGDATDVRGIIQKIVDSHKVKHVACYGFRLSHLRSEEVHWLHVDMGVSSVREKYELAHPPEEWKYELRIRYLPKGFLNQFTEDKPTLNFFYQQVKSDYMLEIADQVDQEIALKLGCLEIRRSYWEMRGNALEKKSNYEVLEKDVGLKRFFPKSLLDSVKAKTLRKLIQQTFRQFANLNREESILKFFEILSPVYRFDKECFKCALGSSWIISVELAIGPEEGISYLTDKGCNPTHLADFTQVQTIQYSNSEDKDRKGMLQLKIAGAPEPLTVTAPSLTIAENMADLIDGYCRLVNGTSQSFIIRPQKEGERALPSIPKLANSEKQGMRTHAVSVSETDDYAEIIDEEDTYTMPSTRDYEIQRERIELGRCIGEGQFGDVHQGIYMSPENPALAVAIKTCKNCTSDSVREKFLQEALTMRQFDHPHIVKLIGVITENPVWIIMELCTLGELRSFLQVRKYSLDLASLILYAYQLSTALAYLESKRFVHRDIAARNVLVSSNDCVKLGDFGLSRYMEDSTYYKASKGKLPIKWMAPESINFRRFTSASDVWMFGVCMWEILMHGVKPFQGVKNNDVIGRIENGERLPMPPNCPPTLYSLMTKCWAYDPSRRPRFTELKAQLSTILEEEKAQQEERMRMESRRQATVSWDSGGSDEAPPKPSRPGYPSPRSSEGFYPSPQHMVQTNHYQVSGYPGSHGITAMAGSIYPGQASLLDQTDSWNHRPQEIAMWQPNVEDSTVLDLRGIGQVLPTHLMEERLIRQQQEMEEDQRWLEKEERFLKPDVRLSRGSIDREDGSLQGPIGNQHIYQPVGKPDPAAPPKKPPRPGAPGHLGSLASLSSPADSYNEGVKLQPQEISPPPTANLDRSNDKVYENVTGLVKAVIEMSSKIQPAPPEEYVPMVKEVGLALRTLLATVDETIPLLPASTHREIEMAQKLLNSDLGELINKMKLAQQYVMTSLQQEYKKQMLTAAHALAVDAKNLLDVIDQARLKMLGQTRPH

Sequence of human JAK2 (O60674 815-1132): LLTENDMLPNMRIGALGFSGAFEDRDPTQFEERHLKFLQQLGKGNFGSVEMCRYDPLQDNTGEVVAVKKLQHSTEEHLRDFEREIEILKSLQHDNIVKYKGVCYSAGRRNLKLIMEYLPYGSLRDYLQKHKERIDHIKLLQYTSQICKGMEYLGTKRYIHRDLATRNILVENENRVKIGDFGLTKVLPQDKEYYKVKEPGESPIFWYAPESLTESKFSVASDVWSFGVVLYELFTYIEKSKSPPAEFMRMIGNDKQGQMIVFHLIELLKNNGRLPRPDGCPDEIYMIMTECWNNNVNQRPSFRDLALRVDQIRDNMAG

Row | SMILES | IC50 (human JAK2) [nM] | IC50 (human FAK) [nM]
1 | CN1CCC(c2cccc(Nc3nc4c(-c5ccccc5N(C)S(C)(=O)=O)cccn4n3)c2)CC1 [Example 130, N-Methyl-N-(2-{2-[3-(1-methyl-piperidin-4-yl)-phenylamino]-[1,2,4]triazolo[1,5-a]pyridin-8-yl}-phenyl)-methanesulfonamide] | 1200 | 3000
2 | CN1CCN(c2ccc(Nc3nc4c(Nc5cccnc5N(C)S(C)(=O)=O)cccn4n3)cc2)CC1 [Example 131, N-Methyl-N-(3-{2-[4-(4-methyl-piperazin-1-yl)-phenylamino]-[1,2,4]triazolo[1,5-a]pyridin-8-ylamino}-pyridin-2-yl)-methanesulfonamide] | 11.4 | 1370
3 | CN(c1ncccc1Nc1cccn2nc(Nc3ccc(OCCN4CCCC4)cc3)nc12)S(C)(=O)=O [Example 132, N-Methyl-N-(3-{2-[4-(2-pyrrolidin-1-yl-ethoxy)-phenylamino]-[1,2,4]triazolo[1,5-a]pyridin-8-ylamino}-pyridin-2-yl)-methanesulfonamide] | 33.1 | 3000
4 | CN1CCC(c2ccc(Nc3nc4c(Nc5cccnc5N(C)S(C)(=O)=O)cccn4n3)cc2)CC1 [Example 133, N-Methyl-N-(3-{2-[4-(1-methyl-piperidin-4-yl)-phenylamino]-[1,2,4]triazolo[1,5-a]pyridin-8-ylamino}-pyridin-2-yl)-methanesulfonamide] | 17.4 | 2070
5 | CN(c1ncccc1CNc1cccn2nc(Nc3ccc(S(C)(=O)=O)cc3)nc12)S(C)(=O)=O [Example 134, N-(3-{[2-(4-Methanesulfonyl-phenylamino)-[1,2,4]triazolo[1,5-a]pyridin-8-ylamino]-methyl}-pyridin-2-yl)-N-methyl-methanesulfonamide] | 17.3 | 752
6 | CN(c1ncccc1CNc1cccn2nc(Nc3cccc(S(C)(=O)=O)c3)nc12)S(C)(=O)=O [Example 135, N-(3-{[2-(3-Methanesulfonyl-phenylamino)-[1,2,4]triazolo[1,5-a]pyridin-8-ylamino]-methyl}-pyridin-2-yl)-N-methyl-methanesulfonamide] | 77.8 | 215
7 | CN1CCN(c2cccc(Nc3nc4c(NCc5cccnc5N(C)S(C)(=O)=O)cccn4n3)c2)CC1 [Example 136, N-Methyl-N-[3-({2-[3-(4-methyl-piperazin-1-yl)-phenylamino]-[1,2,4]triazolo[1,5-a]pyridin-8-ylamino}-methyl)-pyridin-2-yl]-methanesulfonamide] | 77.2 | 71.1
8 | COc1cc(N2CCN(C)CC2)ccc1Nc1nc2c(NCc3cccnc3N(C)S(C)(=O)=O)cccn2n1 [Example 137, N-[3-({2-[2-Methoxy-4-(4-methyl-piperazin-1-yl)-phenylamino]-[1,2,4]triazolo[1,5-a]pyridin-8-ylamino}-methyl)-pyridin-2-yl]-N-methyl-methanesulfonamide] | 3000 | 39.7
9 | CN1CCN(c2ccc(Nc3nc4c(NCc5ccccc5S(C)(=O)=O)cccn4n3)cc2)CC1 [Example 138, N(8)-(2-Methanesulfonyl-benzyl)-N(2)-[4-(4-methyl-piperazin-1-yl)-phenyl]-[1,2,4]triazolo[1,5-a]pyridine-2,8-diamine] | 13.2 | 199
10 | CN1CCN(c2cccc(Nc3nc4c(NCc5ccccc5S(C)(=O)=O)cccn4n3)c2)CC1 [Example 139, N(8)-(2-Methanesulfonyl-benzyl)-N(2)-[3-(4-methyl-piperazin-1-yl)-phenyl]-[1,2,4]triazolo[1,5-a]pyridine-2,8-diamine] | 26.3 | 200
11 | CN1CCC(c2ccc(Nc3nc4c(NCc5ccccc5S(C)(=O)=O)cccn4n3)cc2)CC1 [Example 140, N(8)-(2-Methanesulfonyl-benzyl)-N(2)-[4-(1-methyl-piperidin-4-yl)-phenyl]-[1,2,4]triazolo[1,5-a]pyridine-2,8-diamine] | 22.6 | 124
12 | CS(=O)(=O)c1ccccc1CNc1cccn2nc(Nc3ccc(OCCN4CCCC4)cc3)nc12 [Example 141, N(8)-(2-Methanesulfonyl-benzyl)-N(2)-[4-(2-pyrrolidin-1-yl-ethoxy)-phenyl]-[1,2,4]triazolo[1,5-a]pyridine-2,8-diamine] | 15.1 | 98.8
13 | C[C@H](O)CN1CCN(c2cccc(Nc3nc4c(-c5ccc(S(C)(=O)=O)cc5)cccn4n3)c2)CC1 [Example 142, (S)-1-(4-{3-[8-(4-Methanesulfonyl-phenyl)-[1,2,4]triazolo[1,5-a]pyridin-2-ylamino]-phenyl}-piperazin-1-yl)-propan-2-ol] | 0.75 | 935
14 | C[C@@H](O)CN1CCN(c2cccc(Nc3nc4c(-c5ccc(S(C)(=O)=O)cc5)cccn4n3)c2)CC1 [Example 143, (R)-1-(4-{3-[8-(4-Methanesulfonyl-phenyl)-[1,2,4]triazolo[1,5-a]pyridin-2-ylamino]-phenyl}-piperazin-1-yl)-propan-2-ol] | 1.13 | 1990
15 | CC(C)(O)CN1CCN(c2cccc(Nc3nc4c(-c5ccc(S(C)(=O)=O)cc5)cccn4n3)c2)CC1 [Example 144, 1-(4-{3-[8-(4-Methanesulfonyl-phenyl)-[1,2,4]triazolo[1,5-a]pyridin-2-ylamino]-phenyl}-piperazin-1-yl)-2-methyl-propan-2-ol] | 2.61 | 2050
16 | CS(=O)(=O)c1ccc(-c2cccn3nc(Nc4ccc5c(c4)CCC(N4CCOCC4)CC5)nc23)cc1 (centres unmarked) [Example 145, [8-(4-Methanesulfonyl-phenyl)-[1,2,4]triazolo[1,5-a]pyridin-2-yl]-(7-morpholin-4-yl-6,7,8,9-tetrahydro-5H-benzocyclohepten-2-yl)-amine] | 1.55 | 671
17 | CN1CCN(c2ccc(Nc3nc4c(NCc5ccccc5N(C)S(C)(=O)=O)cccn4n3)cc2)CC1 [Example 147, N-Methyl-N-[2-({2-[4-(4-methyl-piperazin-1-yl)-phenylamino]-[1,2,4]triazolo[1,5-a]pyridin-8-ylamino}-methyl)-phenyl]-methanesulfonamide] | 29.1 | 11.4
18 | CN1CCC(c2ccc(Nc3nc4c(NCc5ccccc5N(C)S(C)(=O)=O)cccn4n3)cc2)CC1 [Example 149, N-Methyl-N-[2-({2-[4-(1-methyl-piperidin-4-yl)-phenylamino]-[1,2,4]triazolo[1,5-a]pyridin-8-ylamino}-methyl)-phenyl]-methanesulfonamide] | 38.5 | 13.6
19 | CN(c1ccccc1CNc1cccn2nc(Nc3ccc(OCCN4CCCC4)cc3)nc12)S(C)(=O)=O [Example 150, N-Methyl-N-[2-({2-[4-(2-pyrrolidin-1-yl-ethoxy)-phenylamino]-[1,2,4]triazolo[1,5-a]pyridin-8-ylamino}-methyl)-phenyl]-methanesulfonamide] | 43.7 | 13
20 | CN1CCN(c2ccc(Nc3nc4c(NCc5cccnc5)cccn4n3)cc2)CC1 [Example 151, N(2)-[4-(4-Methyl-piperazin-1-yl)-phenyl]-N(8)-pyridin-3-ylmethyl-[1,2,4]triazolo[1,5-a]pyridine-2,8-diamine] | 488 | 6500
21 | CS(=O)(=O)c1ccc(-c2cccn3nc(Nc4cccc(N5CCN(CCO)CC5)c4)nc23)cc1 [Example 152, 2-(4-{3-[8-(4-Methanesulfonyl-phenyl)-[1,2,4]triazolo[1,5-a]pyridin-2-ylamino]-phenyl}-piperazin-1-yl)-ethanol] | 2.37 | 999
22 | CN1CCN(c2cccc(Nc3nc4c(NCc5cccnc5)cccn4n3)c2)CC1 [Example 153, N(2)-[3-(4-Methyl-piperazin-1-yl)-phenyl]-N(8)-pyridin-3-ylmethyl-[1,2,4]triazolo[1,5-a]pyridine-2,8-diamine] | 647 | 6500
23 | c1cncc(CNc2cccn3nc(Nc4ccc(OCCN5CCCC5)cc4)nc23)c1 [Example 154, N(8)-Pyridin-3-ylmethyl-N(2)-[4-(2-pyrrolidin-1-yl-ethoxy)-phenyl]-[1,2,4]triazolo[1,5-a]pyridine-2,8-diamine] | 571 | 10000
24 | CN(c1ncccc1CNc1cccn2nc(Nc3ccc(N4CCN(CCO)CC4)cc3)nc12)S(C)(=O)=O [Example 155, N-{3-[(2-{4-[4-(2-Hydroxy-ethyl)-piperazin-1-yl]-phenylamino}-[1,2,4]triazolo[1,5-a]pyridin-8-ylamino)-methyl]-pyridin-2-yl}-N-methyl-methanesulfonamide] | 36 | 379
25 | CN1CCN(c2ccc(Nc3nc4c(NCc5ccccc5CN(C)S(C)(=O)=O)cccn4n3)cc2)CC1 [Example 156, N-Methyl-N-[2-({2-[4-(4-methyl-piperazin-1-yl)-phenylamino]-[1,2,4]triazolo[1,5-a]pyridin-8-ylamino}-methyl)-benzyl]-methanesulfonamide] | 35.4 | 179
26 | CN1CCN(c2cccc(Nc3nc4c(NCc5ccccc5CN(C)S(C)(=O)=O)cccn4n3)c2)CC1 [Example 157, N-Methyl-N-[2-({2-[3-(4-methyl-piperazin-1-yl)-phenylamino]-[1,2,4]triazolo[1,5-a]pyridin-8-ylamino}-methyl)-benzyl]-methanesulfonamide] | 220 | 300
27 | CN(Cc1ccccc1CNc1cccn2nc(Nc3ccc(OCCN4CCCC4)cc3)nc12)S(C)(=O)=O [Example 158, N-Methyl-N-[2-({2-[4-(2-pyrrolidin-1-yl-ethoxy)-phenylamino]-[1,2,4]triazolo[1,5-a]pyridin-8-ylamino}-methyl)-benzyl]-methanesulfonamide] | 97.5 | 276
28 | CN1CCN(c2ccc(Nc3nc4c(NCc5cccc(S(C)(=O)=O)c5)cccn4n3)cc2)CC1 [Example 160, N(8)-(3-Methanesulfonyl-benzyl)-N(2)-[4-(4-methyl-piperazin-1-yl)-phenyl]-[1,2,4]triazolo[1,5-a]pyridine-2,8-diamine] | 262 | 10000

Source: patent US8501936B2 (priority 2009, dated 2013)
